Laboratory results as given in EP1614683B1, “Indazole compounds and pharmaceutical compositions for inhibiting protein kinases, and methods for their use” (priority 1999, dated 2001).
Where two headings read alike, the source gives them in different places.

Assays:
[1] = tested on: lung cancer cells (line MV522); experiment: Cancer cell proliferation (MV522) assay; assay type: cell-based
Description: The protocol for assessing cellular proliferation in cancer cells is similar to that used for assessments in HUVEC cells. Two thousand lung cancer cells (line MV522, acquired from American Tissue Cultural Collection) were seeded in growth media (RPMI1640 medium supplemented with 2 mM glutamine and 10% FBS). Cells are allowed to attach for 1 day prior to addition of test agents and /or vehicles. Cells are treated simultaneously with the same test agents used in the HUVEC assay. Cellular proliferation is quantified by MTT dye reduction assay 72 hours after exposure to test agents. The total length of the assay is 4 days vs. 5 for HUVEC cells because MV522 cells are not exposed to starvation medium.

[2] = tested on: human umbilical vein endothelial cells (HUVEC); experiment: HUVEC proliferation assay (VEGF-stimulated, MTT); assay type: cell-based; details: Homo sapiens, HUVEC, Table 1
[3] = biological target: LCK tyrosine kinase (Homo sapiens, UniProt P06239, C224D/P223M); experiment: LCK spectrophotometric assay; assay type: biochemical; details: Table 1; compound concentration 1 µM; read-out: Lck-P* (% inhibition)
LCK tyrosine kinase, sequence (P06239 223-509 P223M/C224D): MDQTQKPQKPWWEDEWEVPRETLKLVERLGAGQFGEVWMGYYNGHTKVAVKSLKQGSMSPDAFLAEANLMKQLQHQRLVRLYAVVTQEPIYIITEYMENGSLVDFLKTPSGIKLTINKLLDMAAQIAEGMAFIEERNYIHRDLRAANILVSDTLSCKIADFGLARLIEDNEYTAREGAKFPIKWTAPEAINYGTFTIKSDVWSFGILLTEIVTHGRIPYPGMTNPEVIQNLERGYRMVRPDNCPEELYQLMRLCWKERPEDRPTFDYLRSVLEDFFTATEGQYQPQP
Description: The spectrophotometric assay was carried out as described above for VEGF-R2, except for the following changes in concentration: LCK = 60 nM, MgCl2 = 0 mM, poly(E4Y1) = 20 mM.

[4] = biological target: human FGF-R1 (Homo sapiens, UniProt P11362, C488A/C584S/L457V); experiment: FGF-R spectrophotometric assay; assay type: biochemical; details: Table 1; compound concentration 1 µM; read-out: FGF-P* (% inhibition)
human FGF-R1, sequence (P11362 456-766 L457V/C488A/C584S): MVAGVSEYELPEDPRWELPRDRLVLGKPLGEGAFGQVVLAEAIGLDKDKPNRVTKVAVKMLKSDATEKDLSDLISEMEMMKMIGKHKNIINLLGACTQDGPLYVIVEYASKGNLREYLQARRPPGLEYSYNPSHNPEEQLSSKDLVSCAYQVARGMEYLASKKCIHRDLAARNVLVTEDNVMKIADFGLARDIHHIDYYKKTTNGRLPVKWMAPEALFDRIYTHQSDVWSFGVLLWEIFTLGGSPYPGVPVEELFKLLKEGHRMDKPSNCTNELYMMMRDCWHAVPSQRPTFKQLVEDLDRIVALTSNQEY
Description: The spectrophotometric assay was carried out as described above for VEGF-R2, except for the following changes in concentration: FGF-R = 50 nM, ATP = 2 mM, and poly(E4Y1) =15 mM.

[5] = in vitro; assay type: in vitro ADME, human; details: human liver microsomes, 5 µM test compound, 37 °C, 2 h
Procedure, shortened: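 HLM diluted to 5 mg/mL in 100 mM KPO4, preincubated 10 min at 37 °C with NADPH-regenerating system. Compound (5 µM final) incubated at 37 °C in triplicate, sampled at 0 and 2 h into ice-cold acetonitrile, then LC-MS analysis.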

[6] = biological target: unphosphorylated VEGF-R2Δ50 (Homo sapiens, UniProt P35968, DEL940-989/E990V); experiment: biochemical; details: read-out: FLVK ** (% inhibition)
unphosphorylated VEGF-R2Δ50, sequence (P35968 with tags, fused parts or gaps DEL940-989/E990V limits assumed): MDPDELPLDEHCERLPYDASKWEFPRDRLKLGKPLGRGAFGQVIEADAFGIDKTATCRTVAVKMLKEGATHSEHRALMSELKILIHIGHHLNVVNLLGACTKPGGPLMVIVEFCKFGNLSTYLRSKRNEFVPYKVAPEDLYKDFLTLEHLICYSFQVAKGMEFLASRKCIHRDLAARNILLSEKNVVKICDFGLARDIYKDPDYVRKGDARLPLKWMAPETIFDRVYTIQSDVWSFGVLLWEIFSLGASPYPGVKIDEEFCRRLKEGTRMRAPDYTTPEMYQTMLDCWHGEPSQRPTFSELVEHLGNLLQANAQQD

[7] = in vivo; details: mouse, plasma, pH 2.3
[8] = tested on: VEGF dependent retinal vascular development; experiment: In vivo assay of retinal vascular development in neonatal rats; set-up: species or system rat
Description: The development of the retinal vascular in rats occurs from postnatal day 1 to postnatal day 14 (P1-P14). […] To assess the ability of specific compounds to inhibit the activity of VEGF in vivo, compounds were formulated in an appropriate vehicle, usually 50% polyethylene glycol, average molecular weight 400 daltons, and 50% solution of 300 mM sucrose in deionized water. […] Six days after the intravitreal injection, the animals were sacrificed and the retinas dissected free from the remaining ocular tissue. […] The individual retinas are then flat-mount onto glass slides and examined to determine the extent of vascularization. […] The amount of vessel regression was used to assess the relative potency of the compounds after in vivo administration.
For more quantitative analysis of regression, images of ADPase-stained, flat-mounted retinas were captured with a digital camera attached to a dissecting microscope. Retinal images were then imported into an image analysis software (Image Pro Plus 4.0, Media Cybernetics, Silver Spring, MD). The software was employed to determine the percentage of the area of the retina that contained stained vessels. This value for the experimental eye was compared to that measured for the vehicle injected, contralateral eye from the same animal. The reduction in the vascular area seen in the eye that received compound as compared to the vehicle-injected eye was then expressed as the "percent regression" for that sample.

[9] = tested on: VEGF dependent retinal neovascularization; experiment: Neonatal rat model of retinopathy of prematurity; assay type: in vivo; details: Model ROP, intravitreal, vehicle PEG/water 70:30
Description: A second model of VEGF dependent retinal neovascularization was employed to evaluate the activities of this series of compounds. […] The animals are exposed for 24 hours to a concentration of 50% oxygen followed by 24 hours at a concentration of 10% oxygen. This alternating cycle of hyperoxia followed by hypoxia is repeated 7 times after which the animals are removed to room air (P14). Compounds are administered via intravitreal injection upon removal to room air and the animals are sacrificed 6 days later (P20). The isolated retinas are then isolated, stained mounted and analyzed as detail above in the development model. The effectiveness was also graded as is described for the development model.

[10] = + albumin, read-out: HUVEC + albumin IC50
[11] = MV522, Table 1, read-out: MV522 IC50
[12] = IP, 25 mg/kg, vehicle PEG400:H2O pH 2.3 60:40
[13] = PO, 50 mg/kg, vehicle PEG400:H2O pH 2.3 60:40
[14] = IP, 25 mg/kg, vehicle PEG400:H2O pH 2.3 30:70
[15] = PO, 50 mg/kg, vehicle PEG400:H2O pH 2.3 30:70
[16] = Model P8, intravitreal, 5 mg/ml, vehicle PEG/water 50:50
[17] = mouse, in vivo, ip, 25 mg/kg, pH 2.3
[18] = mouse, in vivo, po, 50 mg/kg, pH 2.3
[19] = Model P8, intravitreal, 5 mg/ml, vehicle PEG/water 70:30

Structure (SMILES) | IC50 [2, 10] [nM] | IC50 ([2]; read-out: HUVEC IC50) [nM] | IC50 [1, 11] [µM] | inhibition at 1 µM [3] [%] | inhibition at 1 µM [4] [%] | AUC ([7]; ip, 25 mg/kg) [ng·h/mL] | AUC ([7]; po, 50 mg/kg) [ng·h/mL] | other results
COc1cc(-c2ccc3c(-c4ccc5ccccc5c4)n[nH]c3c2)ccc1O [2(a), 3-(Naphthalen-2-yl)-6-(3-methoxy-4-hydroxy-phenyl)-1H-indazole] |  |  |  |  |  |  |  | IC50 ([1]; MV522, read-out: MV522 IC50 (µM)): 0.58 µM
CC(=O)Nc1cccc(N(C)c2ccc3c(/C=C/c4ccccc4)n[nH]c3c2)c1 [12(a), N-{3-[Methyl-(3-styryl-1H-indazol-6-yl)-amino]-phenyl]-acetamide] | 87 | 6 | 2.1 | 17 |  |  |  | 
O=C(c1cccc(NC(=O)c2cccc3[nH]ccc23)c1)c1ccc2c(/C=C/c3ccccc3)n[nH]c2c1 [19(f), 6-[3-(indol-4-ylcarboxamido)benzoyl]-3-E-styryl-1H-indazole] | 16 | 2.3 | 3.9 | 52 | 58 |  |  | % remain (HLM, 2 h) [5]: 98%
CC(C)C(=O)Nc1cccc(C(=O)c2ccc3c(/C=C/c4ccccc4)n[nH]c3c2)c1 [19(h), 6-[3-(2-methylpropionamido)benzoyl]-3-E-styryl-1H indazole] |  | 600 | 7.9 |  |  |  |  | 
O=C(c1cccc(NC(=O)c2ccccn2)c1)c1ccc2c(/C=C/c3ccccc3)n[nH]c2c1 [19(k), 6-[3-(pyridin-2-ylcarboxamido)benzoyl)-3-E-styryl-1H-indazole] |  | 2.6 | 4 | 37 | 41 | 428 | 19 | inhibition at 0.05 µM [6]: 100%; T1/2 [12]: 2.2 h; Cmin (7 hr conc.) [13]: 4 ng/mL; T1/2 [13]: 2.2 h; % remain (HLM, 2 h) [5]: 58%
O=C(c1cccc(NC(=O)c2cc(Cl)ccn2)c1)c1ccc2c(/C=C/c3ccccc3)n[nH]c2c1 [19(n), 6-[3-(4-chloropyridin-2-ylcarboxamido)benzoyl)-3-E-styryl-1H-indazole] | 23 | 3.4 | 2.9 | 26 | 48 |  |  | 
CC(=O)Nc1cccc(Sc2ccc3c(/C=C/c4ccccc4)n[nH]c3c2)c1 [20(a), 6-(3-Acetamido-phenylsulfanyl)-3-styryl-1H-indazole] |  | 200 | 9.4 |  |  |  |  | 
C=C(c1cccc(NC(=O)c2ccccc2)c1)c1ccc2c(/C=C/c3ccccc3)n[nH]c2c1 [22(b), 6-(1-(3-(Benzoylamido)phenyl)-vinyl)-3-styryl-1H-indazole] |  | 4.8 | 8.5 |  |  |  |  | 
CCn1nc(C)cc1C(=O)Nc1cccc(C(=O)c2ccc3c(/C=C/c4ccccn4)n[nH]c3c2)c1 [41 (a)] |  |  |  |  |  | 92800 | 49000 | % Inhibition ([8]; Model P8, intravitreal, 1 mg/ml, vehicle PEG/water 50:50): 4%; T1/2 [14]: 2.9 h; T1/2 [15]: 3.4 h
C/C=C/C(=O)Nc1cccc(C(=O)c2ccc3c(/C=C/c4ccccn4)n[nH]c3c2)c1 [41 (c)] |  |  |  |  |  |  |  | Initial Evaluation [8, 16]: ++ (two pluses being judged to be approximately 25-75 % regression); % Inhibition ([9]; 1 mg/ml): 16%; % Inhibition ([9]; 10 mg/ml): 54%; Initial Evaluation ([9]; 10 mg/ml): +++ (three pluses give to retinas with near total regression (approximately 75% or greater)); AUCleast [17]: 3397 ng·h/mL; T1/2 [17]: 1.7 h; AUCleast [18]: 3182 ng·h/mL; T1/2 [18]: 2.6 h
CC(=O)c1ccc(C(=O)Nc2cccc(C(=O)c3ccc4c(/C=C/c5ccccn5)n[nH]c4c3)c2)s1 [41 (e)] |  |  |  |  |  | 4900 | 302 | % Inhibition [8, 16]: 8%; T1/2 [12]: 1.6 h; Cmin (7 hr conc.) [13]: 7 ng/mL; T1/2 [13]: 1.6 h
CC1CC1C(=O)Nc1cccc(C(=O)c2ccc3c(/C=C/c4ccccn4)n[nH]c3c2)c1 (stereo not shown) [41 (h)] |  |  |  |  |  | 26900 | 4680 | % Inhibition [8, 19]: 0%; T1/2 [14]: 1.2 h; Cmin (7 hr conc.) [15]: 7 ng/mL; T1/2 [15]: 0.7 h
O=C(c1cccc(NC(=O)c2ccc(Cl)s2)c1)c1ccc2c(/C=C/c3ccccn3)n[nH]c2c1 [41 (o)] |  |  |  |  |  |  | 14700 | % Inhibition [8, 16]: 2%; T1/2 [15]: 1.7 h
Cc1cc(C(=O)Nc2cccc(C(=O)c3ccc4c(/C=C/c5ccccn5)n[nH]c4c3)c2)n(C)n1 [41 (p)] |  |  |  |  |  | 4150 |  | % Inhibition [8, 16]: 35%; T1/2 [14]: 5.5 h
O=C(Nc1cccc(C(=O)c2ccc3c(-c4nc5cccnc5[nH]4)n[nH]c3c2)c1)c1ccccc1 [Example 42(d), 6-(3-benzamidobenzoyl)-3-(3H-imidazo[4,5-b]pyridin-2-yl)-1H-indazole] |  |  | > 10 |  |  |  |  | 
O=C(Nc1cccc(Oc2ccc3c(/C=C/c4ccccn4)n[nH]c3c2)c1)c1ccccc1 [Reference Example 31(a), 6-[3-benzamidophenoxy]-3-E-[2-(Pyridin-2-yl)ethenyl]-1H-indazole] | 10 | 0.7 |  | 77 | 95 | 47500 | 40900 | % Inhibition [8, 19]: 46%; T1/2 [14]: 2.4 h; T1/2 [15]: 1.6 h; % remain (HLM, 2 h) [5]: 58%
Cc1cc(C(=O)Nc2cccc(Oc3ccc4c(/C=C/c5ccccn5)n[nH]c4c3)c2)nn1C [Reference Example 31(b), 6-[3-((1,5-Dimethyl-1H-pyrazol-3-yl)carboxamido)phenoxy]-3-E-[2-(pyridin-2-yl)ethenyl)-1H-indazole] | 5.6 |  |  | 66 | 97 | > 7040 | 2070 | % Inhibition [8, 16]: 32%; T1/2 [14]: 1.7 h; T1/2 [15]: 1.0 h
O=C(Nc1cccc(Oc2ccc3c(/C=C/c4c[nH]cn4)n[nH]c3c2)c1)c1ccccc1 [Reference Example 32(a), 6-[3-benzamidophenoxy]-3-E-[2-(1H-imidazol-4-yl)ethenyl]-1H-indazole] | 4.5 | 0.16 |  | 86 | 96 | > 20600 | 4190 | % Inhibition ([8]; Model P9, intravitreal, 5 mg/ml, vehicle PEG/water 50:50): 20%
O=C(Nc1cccc(Cl)c1)c1ccccc1Sc1ccc2c(/C=C/c3ccccn3)n[nH]c2c1 [Reference Example 33(d), 6-[2-(3-chlorophenylcarbamoyl)phenylsulfanyl]-3-E-[2-(pyridin-2-yl)ethenyl]-1H-indazole] | > 300 |  | 8 | 55 |  |  |  | % remain (HLM, 2 h) [5]: 22%
